Data set [1] has as its system Human immunodeficiency virus 1. As to the kind of experiment: Antiviral activity against wild type HIV-1 infected in human MT4 cells assessed as inhibition of virus-induced cytopathic effect measured by MTT assay. The class given is functional, organism-based. The note with it: Human immunodeficiency virus 1, MT4. In general terms: Protection from cytopathic effect is a common read-out in antiviral testing.

Data set [2] is described as follows: Cytotoxicity against human TZM-bl cells assessed as reduction in cell viability incubated for 5 days by MTT assay. The note with it: time 5 day. In kind it is toxicity, cell-based. (Formazan colour is commonly taken as a measure of viable cells.)
For data set [3], the target named is T1, Human immunodeficiency virus type 1 reverse transcriptase (Human immunodeficiency virus 1, UniProt Q72547). As to the kind of experiment: Inhibition of HIV-1 reverse transcriptase RNase H activity expressed in Escherichia coli M15 using 5-GTTTTCTTTTCCCCCCTGAC-3 Fluorescein/5CAAAAGAAAAGGGGGGACUG-3-Dabcyl RNA/DNA template-primer as substrate incubated for 1 hr by multilabel counter plate reader method.

The nature of data set [4]: Inhibition of HIV-1 reverse transcriptase associated RNA dependent DNA polymerase activity incubated for 30 mins by multilabel counter plate reader method. The arrangement: species or system Human immunodeficiency virus 1.
Data set [5] has as its system Human immunodeficiency virus 1. As to the kind of experiment: Antiviral activity against HIV-1 IIIB infected in human TZM-bl cells assessed as reduction in virus-induced cytopathic effect incubated for 5 days by MTT assay. The note with it: Human immunodeficiency virus 1, IIIB, 120 h. The class given is functional, organism-based.
Data set [6] deals with T1, Human immunodeficiency virus type 1 reverse transcriptase. The data set is described as follows: Inhibition of recombinant HIV-1 reverse transcriptase […] RNase H expressed in Escherichia coli M15 using 5-GTTTTCTTTTCCCCCCTGAC-3 Fluorescein/5CAAAAGAAAAGGGGGGACUG-3-Dabcyl RNA/DNA template-primer as substrate incubated for 1 hr by multilabel counter plate reader method.

A short description of data set [7]: Inhibition of wild type HIV-1 RNA dependent DNA polymerase activity incubated for 30 mins by multilabel counter plate reader method. The arrangement: species or system Human immunodeficiency virus 1.
Data set [8] deals with T1, Human immunodeficiency virus type 1 reverse transcriptase. As to the kind of experiment: Non-competitive inhibition of HIV reverse transcriptase polymerase activity.
For data set [9] the target is unchanged. As to the kind of experiment: Inhibition of HIV-1 reverse transcriptase associated RNase H activity.
The target in data set [10] is T2, Human immunodeficiency virus type 1 integrase (Human immunodeficiency virus 1, UniProt Q7ZJM1). The data set is described as follows: Inhibition of HIV-1 integrase strand transfer activity.
T2 sequence (Q7ZJM1 whole entry): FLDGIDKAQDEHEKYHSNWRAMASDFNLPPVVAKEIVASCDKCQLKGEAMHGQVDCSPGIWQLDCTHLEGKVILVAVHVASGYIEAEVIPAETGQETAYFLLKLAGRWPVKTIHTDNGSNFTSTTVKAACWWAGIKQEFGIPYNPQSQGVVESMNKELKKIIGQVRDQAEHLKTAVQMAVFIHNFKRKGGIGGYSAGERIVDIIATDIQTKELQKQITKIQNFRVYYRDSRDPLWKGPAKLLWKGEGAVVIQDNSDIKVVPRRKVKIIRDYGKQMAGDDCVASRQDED
Data set [11] concerns the target T1, Human immunodeficiency virus type 1 reverse transcriptase. The data set is described as follows: Inhibition of HIV-1 reverse transcriptase associated RNase H using 5-GTTTTCTTTTCCCCCCTGAC-3 Fluorescein/5CAAAAGAAAAGGGGGGACUG-3-Dabcyl as substrate incubated for 1 hr.
Data set [12] addresses T2, Human immunodeficiency virus type 1 integrase. As to the kind of experiment: Inhibition of recombinant HIV-1 His-tagged LEDGF-dependent integrase preincubated for 1 hr followed by compound addition and measured after 90 mins by HTRF method. On the technique in general: In TR-FRET formats the signal depends on donor and acceptor labels being close together.
For data set [13], the system named is Human immunodeficiency virus 1. The data set is described as follows: Antiviral activity against HIV-1 infected in human MT4 cells assessed as inhibition of virus-induced cytopathic effect measured after 5 days by spectrophotometric MTT assay. The settings on record: Human immunodeficiency virus 1, MT4, 120 h. The class given is functional, organism-based.

In a further data set the test system is MT4. The data set is described as follows: Cytotoxicity against human MT4 cells. In kind it is functional.
Data set [14] deals with T1, Human immunodeficiency virus type 1 reverse transcriptase. The data set is described as follows: Inhibition of HIV-1 RNase H.
A further data set in a line: in vitro. The settings on record: human, TZM-bl cells.
Data set [15] concerns the target T1, Human immunodeficiency virus type 1 reverse transcriptase. As to the kind of experiment: Inhibition of N-terminal 6-his-tagged HIV-1 reverse transcriptase RNase H (427 to 560 residues) transformed in Escherichia coli […] (DE3) at pH 8.0 incubated for 4 hrs.
Data set [16] has the same target. The data set is described as follows: Inhibition of N-terminal 6-his-tagged HIV-1 reverse transcriptase RNase H (427 to 560 residues) transformed in Escherichia coli […] (DE3) at pH 7.4 incubated for 4 hrs.
The target is the same in data set [17]. As to the kind of experiment: Inhibition of wild type HIV-1 reverse transcriptase associated DNA polymerase independent RNase H activity using 5-GTTTTCTTTTCCCCCCTGAC-3 Fluorescein/5CAAAAGAAAAGGGGGGACUG-3-Dabcyl RNA/DNA template-primer as substrate by multilabel counter plate reader method.
Data set [18] is described as follows: Cytotoxicity against human MT4 cells assessed as reduction in cell viability by MTT assay. In kind it is toxicity, cell-based.
Data set [19] has as its system Human immunodeficiency virus 1. As to the kind of experiment: Antiviral activity against wild type HIV-1 IIIB infected in human MT2 cells assessed as protection against virus-induced cytopathicity incubated for 5 days by MTT assay. The class given is functional, organism-based. The settings on record: Human immunodeficiency virus 1, IIIB, MT2, 120 h.

14 compounds from ChEMBL document CHEMBL5331055, “Current medicinal chemistry strategies in the discovery of novel HIV-1 ribonuclease H inhibitors” (Eur J Med Chem, 2022) can be followed below.

Some results are limits rather than exact numbers.

Description for in vitro: Cytotoxicity against human TZM-bl cells assessed as reduction in cell viability at 20 uM incubated for 3 days by XTT assay

In general, EC50 refers to the concentration giving half of the maximal effect. On to `CCOC(=O)C(=O)CC(=O)/C=C/c1cccn1Cc1ccc(F)cc1`, for which the EC50 in [1] came to 14 µM.
The term CC50 denotes the concentration giving 50% cytotoxicity. A word on the IC50: it is the midpoint of a concentration-inhibition curve. Regarding `COc1cc(OC)cc(OC(=O)c2ccc(C(F)(F)F)nc2Nc2cc(Cl)ccc2C)c1`, in data set [2], the CC50 at 120 h is greater than 50 µM. For the same compound, the IC50 in data set [3] was found to be 14 µM; in [4] it was 16.1 µM. Also, the EC50 in data set [5] was found to be 5 µM.
For the compound `N#Cc1ccc(-c2c[nH]/c(=N\N=C3/C(=O)Nc4ccccc43)s2)cc1`, the 50% inhibitory concentration (IC50) in data set [6] turned out to be 1.3 µM; in [7], 9.8 µM.
Consider `O=C1Cc2ccc(-c3ccco3)cc2C(=O)N1O`, for which the values for the IC50 in data set [8] and in [9] were 2.6 µM and 0.65 µM, respectively.
Regarding `Cc1c(O)c([N+](=O)[O-])cc2cc(C(=O)Nc3ccc(O)c(C(=O)O)c3)c(=O)oc12`, the values for the IC50 in data set [10] and in [4] were 5 µM and 6.7 µM, respectively.
For the compound `O=C(N/N=C/c1ccc(O)cc1O)c1cc(O)c(O)c(O)c1`, the IC50 stood at 1.7 µM in data set [11] and 16 µM in data set [12]. Moreover, the EC50 in data set [13] came to 17 µM. The compound further registered a 50% cytotoxic concentration (CC50) in the data set on MT4 of 61 µM.
For the compound `C=C(C)[C@@H]1CCc2c(c(C)cc(O)c(=O)c2O)C1`, the IC50 in [14] amounted to 0.6 µM.
Consider `CC1=C[C@H](c2c(O)ccc([C@@H]3CC(=O)c4c(O)cc(O)cc4O3)c2O)[C@@H](C(=O)c2ccc(O)cc2O)[C@H](c2ccc(O)cc2O)C1` [KUWANON L], for which the half-maximal cytotoxic concentration (CC50) at 72 h in the data set “in vitro” is greater than 20 µM.
Regarding `O=C(O)Cc1cc(=O)oc2c(O)c(O)ccc12`, the 50% inhibitory concentration (IC50) was 1.1 µM in [15] and 4.8 µM in data set [16].
Take `Cn1cc(-c2ccc(-c3ccccc3)cc2)s/c1=N/N=C1\C(=O)Nc2ccc(Cl)cc21`: the IC50 in data set [14] was found to be 10 µM; in data set [17], 9.5 µM.
`Nc1ccc(S(=O)(=O)N2CCN(C(=O)c3cc(O)c(O)c(O)c3)CC2)cc1`: the CC50 in data set [18] is greater than 19.9 µM.
Consider `COC(=O)c1cc(NC(=O)c2cc3cc([N+](=O)[O-])c(O)c(O)c3oc2=O)ccc1O`, for which the IC50 in [4] worked out at 6 µM.
In the case of `COC(=O)c1c(C)cc(O)c(=O)c(O)c1Br`, in [14], half-maximal inhibition (IC50) was put at 0.13 µM.
Turning to `Nc1nn(C(=O)c2ccccc2)c(N)c1C(=S)Nc1ccc(Cl)cc1`, the IC50 in data set [19] is 25 µM; in data set [17], 7 µM; in data set [7] it was 17 µM.
